Test [1] concerns the target T1, HCV NS3/4A protease complex, J4L6S strain (Hepatitis C virus genotype 1b, UniProt O92972, C1454S/C1711G).
T1 construct: DNA encoding the recombinant HCV NS3/4A protease complex (amino acids 1027 to 1711) for these strains; His tag (inferred from pET21b vector and Ni-NTA purification); made in house; host or cells: Escherichia coli BL21 (DE3), pET21b
Description: FRET peptide assay to monitor HCV NS3/4A proteolytic activity (J4L6S strain). In kind it is biochemical, HCV genotype 1b. The text has this: (§1) HCV NS3 protease complexes, derived from the BMS strain, H77 strain or J4L6S strain, were generated, as described below. These purified recombinant proteins were generated for use in a homogeneous assay (see below) to provide an indication of how effective compounds of the present disclosure would be in inhibiting HCV NS3 proteolytic activity.
(§2) Serum from an HCV-infected patient was obtained from Dr. T. Wright, San Francisco Hospital. An engineered full-length cDNA (compliment deoxyribonucleic acid) template of the HCV genome (BMS strain) was constructed from DNA fragments obtained by reverse transcription-PCR(RT-PCR) of serum RNA (ribonucleic acid) and using primers selected on the basis of homology between other genotype 1a strains. From the determination of the entire genome sequence, a genotype 1a was assigned to the HCV isolate according to the classification of Simmonds et al. (See P Simmonds, K A Rose, S Graham, S W Chan, F McOmish, B C Dow, E A Follett, P L Yap and H Marsden, J. Clin. Microbiol., 31(6), 1493-1503 (1993)). […]

Test [2] has as its target T2, HCV NS3/4A protease complex, H77 strain (Hepatitis C virus genotype 1a, UniProt P27958, C1454S/C1711G).
T2 construct: DNA encoding the recombinant HCV NS3/4A protease complex (amino acids 1027 to 1711) for these strains; His tag (inferred from pET21b vector and Ni-NTA purification); made in house; host or cells: Escherichia coli BL21 (DE3), pET21b
The test is described as follows: FRET peptide assay to monitor HCV NS3/4A proteolytic activity (H77 strain). In kind it is biochemical, HCV genotype 1a.
Text: as §1, §2

T1 sequence (O92972 1027-1711 C1454S/C1711G, one chain of several): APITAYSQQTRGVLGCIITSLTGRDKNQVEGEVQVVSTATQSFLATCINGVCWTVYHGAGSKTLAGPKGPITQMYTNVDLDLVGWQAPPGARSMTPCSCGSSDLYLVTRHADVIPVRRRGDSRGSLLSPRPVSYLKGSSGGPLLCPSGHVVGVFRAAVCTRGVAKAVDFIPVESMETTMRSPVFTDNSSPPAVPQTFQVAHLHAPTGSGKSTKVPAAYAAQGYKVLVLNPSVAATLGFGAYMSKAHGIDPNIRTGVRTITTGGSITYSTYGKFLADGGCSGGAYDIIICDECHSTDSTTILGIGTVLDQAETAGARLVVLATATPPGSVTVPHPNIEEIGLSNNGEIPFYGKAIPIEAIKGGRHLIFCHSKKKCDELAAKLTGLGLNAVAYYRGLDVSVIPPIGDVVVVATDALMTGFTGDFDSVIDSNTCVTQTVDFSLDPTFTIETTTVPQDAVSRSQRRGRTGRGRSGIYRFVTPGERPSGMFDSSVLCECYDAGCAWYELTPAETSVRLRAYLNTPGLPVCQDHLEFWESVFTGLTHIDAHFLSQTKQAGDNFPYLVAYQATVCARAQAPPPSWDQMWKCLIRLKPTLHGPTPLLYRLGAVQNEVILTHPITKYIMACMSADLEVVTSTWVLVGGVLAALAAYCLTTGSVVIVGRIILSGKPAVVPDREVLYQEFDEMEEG
T2 sequence (P27958 1027-1711 C1454S/C1711G, one chain of several): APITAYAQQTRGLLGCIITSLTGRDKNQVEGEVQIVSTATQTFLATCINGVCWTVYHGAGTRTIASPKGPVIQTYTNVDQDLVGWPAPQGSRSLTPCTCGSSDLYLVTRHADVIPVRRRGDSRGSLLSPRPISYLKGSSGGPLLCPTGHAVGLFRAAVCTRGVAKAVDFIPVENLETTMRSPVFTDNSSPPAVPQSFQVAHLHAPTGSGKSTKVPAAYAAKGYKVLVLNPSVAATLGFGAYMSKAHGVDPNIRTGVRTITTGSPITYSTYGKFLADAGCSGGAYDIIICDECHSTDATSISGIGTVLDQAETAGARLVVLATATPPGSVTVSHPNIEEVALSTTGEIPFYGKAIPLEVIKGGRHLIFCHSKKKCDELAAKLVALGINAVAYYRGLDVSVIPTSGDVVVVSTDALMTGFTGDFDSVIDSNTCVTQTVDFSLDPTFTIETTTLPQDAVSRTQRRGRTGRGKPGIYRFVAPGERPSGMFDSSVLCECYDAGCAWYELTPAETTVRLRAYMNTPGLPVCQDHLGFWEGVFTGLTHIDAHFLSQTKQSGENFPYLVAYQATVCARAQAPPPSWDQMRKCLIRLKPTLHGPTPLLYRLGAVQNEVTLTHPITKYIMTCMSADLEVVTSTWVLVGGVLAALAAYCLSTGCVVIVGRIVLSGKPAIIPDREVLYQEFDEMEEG

One may read the IC50 as the concentration needed to halve the response being measured. A higher IC50 goes with a need for much substance. As to `C=C[C@@H]1C[C@]1(NC(=O)[C@@H]1C[C@@H](OC(=O)c2ccccc2)CN1C(=O)[C@@H](NC(=O)OC(C)(C)C)C(C)(C)C)C(=O)NS(=O)(=O)C1CC1` [Compound 1], the concentration for half-maximal inhibition (IC50) in test [1] was 2.5 nM; in test [2] it was 6 nM.

The values are drawn from patent US7935670B2, “Hepatitis C virus inhibitors” (Bristol-Myers Squibb Company, priority 2006, dated 2011).
